According to PubChem BioAssay AID1259407 (Chemical Carcinogenesis Research Information System (CCRIS), 2018):
Calls of active or inactive are those of the source. How the calls were made is not given here.

Test system: CCRIS mutagenicity, Ames/micronucleus/aberration tests
Test: CCRIS mutagenicity studies

Question: Which results are given for `S=c1nc[nH]c2nc[nH]c12`?
Answer: mutagenic call (End Point: IN VITRO MICRONUCLEUS, Test System: CHL/IU CELLS, Metabolic Activation: NONE): active; positive; mutagenic call (End Point: IN VITRO MICRONUCLEUS, Test System: CHO CELLS, Metabolic Activation: RAT, LIVER, S-9, AROCLOR 1254): inactive; negative; mutagenic call (Test System: AMES SALMONELLA TYPHIMURIUM, Strain/Indicator: TA97, Metabolic Activation: HAMSTER, LIVER, S-9, AROCLOR 1254 (30%), Method: PREINCUBATION): inactive; negative; mutagenic call (Test System: AMES SALMONELLA TYPHIMURIUM, Strain/Indicator: TA97, Metabolic Activation: NONE, Method: PREINCUBATION): inactive; negative; mutagenic call (Test System: AMES SALMONELLA TYPHIMURIUM, Strain/Indicator: TA97, Metabolic Activation: NONE, Method: STANDARD PLATE): inactive; negative; mutagenic call (Test System: AMES SALMONELLA TYPHIMURIUM, Strain/Indicator: TA97, Metabolic Activation: RAT, LIVER, S-9, AROCLOR 1254 (30%), Method: PREINCUBATION): inactive; negative; mutagenic call (Test System: AMES SALMONELLA TYPHIMURIUM, Strain/Indicator: TA97, Metabolic Activation: RAT, LIVER, S-9, PHENOBARBITAL AND ALPHA-NAPHTHOFLAVONE, Method: STANDARD PLATE): inactive; negative; mutagenic call (Test System: AMES SALMONELLA TYPHIMURIUM, Strain/Indicator: TA98, Metabolic Activation: HAMSTER, LIVER, S-9, AROCLOR 1254 (30%), Method: PREINCUBATION): inactive; negative; mutagenic call (Test System: AMES SALMONELLA TYPHIMURIUM, Strain/Indicator: TA98, Metabolic Activation: NONE, Method: PREINCUBATION): inactive; negative; mutagenic call (Test System: AMES SALMONELLA TYPHIMURIUM, Strain/Indicator: TA98, Metabolic Activation: NONE, Method: SPIRAL ASSAY): inactive; negative; mutagenic call (Test System: AMES SALMONELLA TYPHIMURIUM, Strain/Indicator: TA98, Metabolic Activation: NONE, Method: STANDARD PLATE): inactive; negative; mutagenic call (Test System: AMES SALMONELLA TYPHIMURIUM, Strain/Indicator: TA98, Metabolic Activation: RAT, LIVER, S-9, AROCLOR 1254 (30%), Method: PREINCUBATION): inactive; negative; mutagenic call (Test System: AMES SALMONELLA TYPHIMURIUM, Strain/Indicator: TA98, Metabolic Activation: RAT, LIVER, S-9, AROCLOR 1254, Method: SPIRAL ASSAY): inactive; negative; mutagenic call (Test System: AMES SALMONELLA TYPHIMURIUM, Strain/Indicator: TA98, Metabolic Activation: RAT, LIVER, S-9, AROCLOR 1254, Method: STANDARD PLATE): inactive; negative; mutagenic call (Test System: AMES SALMONELLA TYPHIMURIUM, Strain/Indicator: TA98, Metabolic Activation: RAT, LIVER, S-9, PHENOBARBITAL AND ALPHA-NAPHTHOFLAVONE, Method: STANDARD PLATE): inactive; negative; mutagenic call (Test System: AMES SALMONELLA TYPHIMURIUM, Strain/Indicator: TA100, Metabolic Activation: HAMSTER, LIVER, S-9, AROCLOR 1254 (30%), Method: PREINCUBATION): inactive; negative; mutagenic call (Test System: AMES SALMONELLA TYPHIMURIUM, Strain/Indicator: TA100, Metabolic Activation: NONE, Method: PREINCUBATION): inactive; negative; mutagenic call (Test System: AMES SALMONELLA TYPHIMURIUM, Strain/Indicator: TA100, Metabolic Activation: NONE, Method: SPIRAL ASSAY): inactive; negative; mutagenic call (Test System: AMES SALMONELLA TYPHIMURIUM, Strain/Indicator: TA100, Metabolic Activation: RAT, LIVER, S-9, AROCLOR 1254 (30%), Method: PREINCUBATION): inactive; negative; mutagenic call (Test System: AMES SALMONELLA TYPHIMURIUM, Strain/Indicator: TA100, Metabolic Activation: RAT, LIVER, S-9, AROCLOR 1254, Method: SPIRAL ASSAY): inactive; negative; mutagenic call (Test System: AMES SALMONELLA TYPHIMURIUM, Strain/Indicator: TA100, Metabolic Activation: RAT, LIVER, S-9, AROCLOR 1254, Method: STANDARD PLATE): inactive; negative; mutagenic call (Test System: AMES SALMONELLA TYPHIMURIUM, Strain/Indicator: TA100, Metabolic Activation: RAT, LIVER, S-9, PHENOBARBITAL AND ALPHA-NAPHTHOFLAVONE, Method: STANDARD PLATE): inactive; negative; mutagenic call (Test System: AMES SALMONELLA TYPHIMURIUM, Strain/Indicator: TA102, Metabolic Activation: NONE, Method: STANDARD PLATE): inactive; negative; mutagenic call (Test System: AMES SALMONELLA TYPHIMURIUM, Strain/Indicator: TA1535, Metabolic Activation: HAMSTER, LIVER, S-9, AROCLOR 1254 (30%), Method: PREINCUBATION): active; positive; mutagenic call (Test System: AMES SALMONELLA TYPHIMURIUM, Strain/Indicator: TA1535, Metabolic Activation: NONE, Method: PREINCUBATION): active; positive; mutagenic call (Test System: AMES SALMONELLA TYPHIMURIUM, Strain/Indicator: TA1535, Metabolic Activation: NONE, Method: SPIRAL ASSAY): active; positive; mutagenic call (Test System: AMES SALMONELLA TYPHIMURIUM, Strain/Indicator: TA1535, Metabolic Activation: NONE, Method: STANDARD PLATE): active; positive; mutagenic call (Test System: AMES SALMONELLA TYPHIMURIUM, Strain/Indicator: TA1535, Metabolic Activation: RAT, LIVER, S-9, AROCLOR 1254 (30%), Method: PREINCUBATION): active; positive; mutagenic call (Test System: AMES SALMONELLA TYPHIMURIUM, Strain/Indicator: TA1535, Metabolic Activation: RAT, LIVER, S-9, AROCLOR 1254, Method: SPIRAL ASSAY): active; positive; mutagenic call (Test System: AMES SALMONELLA TYPHIMURIUM, Strain/Indicator: TA1535, Metabolic Activation: RAT, LIVER, S-9, AROCLOR 1254, Method: STANDARD PLATE): active; positive; mutagenic call (Test System: AMES SALMONELLA TYPHIMURIUM, Strain/Indicator: TA1535, Metabolic Activation: RAT, LIVER, S-9, PHENOBARBITAL AND ALPHA-NAPHTHOFLAVONE, Method: STANDARD PLATE): active; positive; mutagenic call (Test System: AMES SALMONELLA TYPHIMURIUM, Strain/Indicator: TA1537, Metabolic Activation: NONE, Method: SPIRAL ASSAY): inactive; negative; mutagenic call (Test System: AMES SALMONELLA TYPHIMURIUM, Strain/Indicator: TA1537, Metabolic Activation: NONE, Method: STANDARD PLATE): inactive; negative; mutagenic call (Test System: AMES SALMONELLA TYPHIMURIUM, Strain/Indicator: TA1537, Metabolic Activation: RAT, LIVER, S-9, AROCLOR 1254, Method: SPIRAL ASSAY): inactive; negative; mutagenic call (Test System: AMES SALMONELLA TYPHIMURIUM, Strain/Indicator: TA1537, Metabolic Activation: RAT, LIVER, S-9, AROCLOR 1254, Method: STANDARD PLATE): inactive; negative; mutagenic call (Test System: CHINESE HAMSTER V-79, Strain/Indicator: V-79/6-THIOGUANINE, Metabolic Activation: NONE, Method: SUSPENSION/PLATE): active; positive; mutagenic call (Test System: CHINESE HAMSTER V-79, Strain/Indicator: V-79/6-THIOGUANINE, Metabolic Activation: RAT, LIVER, HEPATOCYTES, Method: SUSPENSION/PLATE): active; positive; mutagenic call (Test System: E. COLI, Strain/Indicator: WP2 (HCR), Metabolic Activation: NONE, Method: STANDARD PLATE): inactive; negative; mutagenic call (Test System: UDS RAT HEPATOCYTES, Strain/Indicator: THY INCORP, Metabolic Activation: NONE, Method: AUTORADIOGRAPHY (SERUM-FREE MEDIA)): inactive; negative

Question: For `Nc1ccn(/C=C/C=O)c(=O)n1`, which mutagenic call (Test System: AMES SALMONELLA TYPHIMURIUM, Strain/Indicator: HISD3052, Metabolic Activation: NONE, Method: STANDARD PLATE) is on record?
Answer: active; positive
